“And” between values parts separate entries of the source, which are not always exact repeats. Equal entries are not always repeated.
Legend:
human preadipocytes [1] = assay: Cytotoxicity (LDH release) on preadipocytes in inflammatory condition (AcMC); assay type: cell-based; details: for Cytotoxicity at the end of the culture, normalized by cell number, Values: single replicates
Method: (§1) Preadipocytes have been isolated from human female hypodermis (body mass index <30 kg/m2 and <45 years old). Preadipocytes have been cultured for 24 h in 100 μl of DMEM-10% Fetal Bovine Serum (FBS) in 96-well plates. Then cells were treated to induce their differentiation in a classical or an inflammatory environment for 13 days.
(§2) To induce the preadipocytes differentiation cells were incubated in a proadipogenic cocktail (PAC) including insulin, glucocorticoid, 3-isobutyl-1-methylxanthine (IBMX), and thiazolinedione in DMEM.
(§3) To induce a fibro-inflammatory environment, cells were treated with an activated human macrophage-conditioned medium (AcMC) prepared in RPMI medium. A treatment with Dexamethasone (DXM) at 100 nM was used as anti-inflammatory response control. At D0: preadipocytes have been treated in the following conditions: • “Undifferentiation”: DMEM+¼ RPMI medium • “Differentiation”: PAC+¼ RPMI medium • “AcMC” i.e. inflammatory condition: PAC+¼ AcMC • “AcMC+DXM”: PAC+[…] AcMC+anti-inflammatory DXM at 100 nM • “AcMc+compounds”: PAC+14 AcMC+compounds to be tested
(§4) All conditions have been performed in triplicate. The medium has been changed every 2 days for 13 days.
(§5) At D14: during the last 24 h of culture, the medium has been replaced by DMEM/F12 medium in all conditions, to collect cells' secretions.
Cytotoxicity was assessed by the measurement of the lactate dehydrogenase (LDH) released by damaged cells in the culture medium (using the kit CytoTox-One Non-Radioactive Cytotoxicity Assay, G1780, Promega). Cells were treated with 0.2% of triton at the end of the culture to determine the maximal toxicity response. The LDH measurement was realized on 24 h medium secretions after 13 days of culture.
The results were normalized by cell number, determined by nuclei staining (with DAPI: 4′,6-Diamidino-2-Phenylindole, Dihydrochloride), and were represented in percentage of the lysis positive control. Compounds presenting a level of cytotoxicity below 20% compared to control were considered as non-toxic.
Quantity of LDH measured in medium was normalized by cell number in each culture condition. Data are represented in percentage of proinflammatory control conditions (AcMC condition).

human preadipocytes [2] = assay: Lipid index (AdipoRed area*intensity, imaging) in preadipocytes in inflammatory condition; assay type: cell-based; details: for Lipid Index (Adipored area * intensity), Mean / Lipid Index (Adipored area * intensity), Values: normalized by cells number (DAPI); for Lipid Index (Adipored area * intensity), Values: individual values
Method: as §1, §2, §3, §4
A second analysis of lipid accumulation was performed with an imaging acquisition and quantification. The area and the intensity of the lipid droplets were evaluated and quantified for more accurate data. An index was calculated (area*intensity of the AdipoRed staining) and normalized by cells number.
(§6) Lipid accumulation and Lipid index were evaluated for each condition. Data are represented in percentage of proinflammatory control condition (AcMC condition).

MCP1 = assay: Extracellular secretion of MCP1 by preadipocytes in inflammatory condition (ELISA); assay type: cell-based, human; details: for MCP1 secretion, Mean (%) / MCP1 secretion, Values (%): inflammatory condition, normalized by cells number (Dapi); for MCP1 secretion, Values (%): individual values; for MCP1 secretion compared to the AcMC control condition fixed at 100%: differentiated preadipocytes
Method: as §1, §2, §3, §4, §5
After 13 days, the 24 h culture media of the different conditions have been collected at the end of the treatment period. The concentrations of IL-6, procollagen I and MCP1 have been evaluated by ELISA assays using specific kits (for IL-6: DY206, DuoSet ELISA, R&D Systems; for Procollagen I: DY6220-05, DuoSet ELISA, R&D Systems; for MCP1: DY279-05 DuoSet ELISA, R&D Systems) according to the manufacture's recommendations. Values have been normalized to the cell number determined by DAPI staining.
Quantity of MCP1 secreted in medium was measured and was normalized by cell number in each culture condition. Data are represented in percentage of proinflammatory control condition (AcMC condition).

[3] = system: SOD2 gene expression in aged human fibroblasts; assay: SOD2 gene expression in aged human fibroblasts; assay type: cell-based; details: 6 mg/ml
human preadipocytes [4] = assay: Total lipid accumulation (AdipoRed staining) in preadipocytes/adipocytes in inflammatory condition; assay type: cell-based; details: for Total Lipid Accumulation (Adipored staining), Mean / Total Lipid Accumulation (Adipored staining), Values: end of the culture; for Total Lipid Accumulation (Adipored staining), Values: individual values
Method: as §1, §2, §3, §4
After 14 days of culture, preadipocytes have been fixed with 4% paraformaldehyde and then stained by AdipoRed™ at room temperature to reveal the intracellular lipid droplets. Quantification of lipid accumulation has been performed by fluorescence intensity measurements using the spectrophotometer Spark (TECAN).
as §6

human preadipocytes [5] = assay: Proliferation of preadipocytes in inflammatory condition (DAPI nuclei staining); assay type: cell-based; details: for Cells number at the end of the culture (DAPI staining), Values: individual values; for Cell number (DAPI staining): preadipocytes, inflammatory conditions (AcMC), AcMC control 12 819 AU
Method: as §1, §2, §3, §4
The number of cells was determined for each condition by DAPI nuclei staining (nuclei) and expressed in arbitrary unit.

## N[C@H]1CCCN(CC(F)(F)[C@]2(O)O[C@H](CO)[C@H](O)[C@H](O)[C@H]2O)C1=O [Compound 6]
Human preadipocytes [1]; AcMC + 1 mg/ml
  Cytotoxicity at the end of the culture, normalized by cell number, Mean: 81.7 % of AcMC condition
  Cytotoxicity at the end of the culture, normalized by cell number, Values: 53.1 % of AcMC condition and 81.8 % of AcMC condition and 110.4 % of AcMC condition
Human preadipocytes [1]; AcMC + 2 mg/ml
  Cytotoxicity at the end of the culture, normalized by cell number, Mean: 53.3 % of AcMC condition
  Cytotoxicity at the end of the culture, normalized by cell number, Values: 50.5 % of AcMC condition and 50.6 % of AcMC condition and 58.9 % of AcMC condition
Human preadipocytes [2]; AcMC + 1 mg/ml
  Lipid Index (Adipored area * intensity), Mean: 158.6 % of AcMC condition
  Lipid Index (Adipored area * intensity), Values: 150.8 % of AcMC condition and 156.6 % of AcMC condition and 168.4 % of AcMC condition
Human preadipocytes [2]; AcMC + 2 mg/ml
  Lipid Index (Adipored area * intensity), Mean: 297.9 % of AcMC condition
  Lipid Index (Adipored area * intensity), Values: 286.0 % of AcMC condition and 338.7 % of AcMC condition and 269.0 % of AcMC condition
Human preadipocytes [2]; both concentration, inflammatory media
  Lipid index compared to AcMC control: increased
MCP1; 1 mg/ml
  MCP1 secretion, Mean (%): 71 % of AcMC condition
  MCP1 secretion, Values (%): 58.8 % of AcMC condition and 67.5 % of AcMC condition and 85.6 % of AcMC condition
  MCP1 secretion compared to the AcMC control condition fixed at 100%: 71%
MCP1; 2 mg/ml
  MCP1 secretion, Mean (%): 65 % of AcMC condition
  MCP1 secretion, Values (%): 62.8 % of AcMC condition and 65.6 % of AcMC condition and 67.5 % of AcMC condition
  MCP1 secretion compared to the AcMC control condition fixed at 100%: 65%
[3]
  increased SOD2 gene expression compared to the control: 204%
Human preadipocytes [4]; AcMC + 1 mg/ml
  Total Lipid Accumulation (Adipored staining), Mean: 126.8 % of AcMC condition
  Total Lipid Accumulation (Adipored staining), Values: 130.3 % of AcMC condition and 123.6 % of AcMC condition and 126.5 % of AcMC condition
Human preadipocytes [4]; AcMC + 2 mg/ml
  Total Lipid Accumulation (Adipored staining), Mean: 137.0 % of AcMC condition
  Total Lipid Accumulation (Adipored staining), Values: 137.2 % of AcMC condition and 132.3 % of AcMC condition and 141.4 % of AcMC condition
Human preadipocytes [4]; both concentration
  Total lipid synthesis (lipid accumulation) in the inflammatory media: increase lipid synthesis
Human preadipocytes [5]; AcMC + 1 mg/ml
  Cells number at the end of the culture, DAPI staining, Mean: 18154 AU
  Cells number at the end of the culture (DAPI staining), Values: 18502 AU and 17976 AU and 17985 AU
Human preadipocytes [5]; AcMC + 2 mg/ml
  Cells number at the end of the culture, DAPI staining, Mean: 20147 AU
  Cells number at the end of the culture (DAPI staining), Values: 20261 AU and 20369 AU and 19811 AU
Human preadipocytes [5]; 1 mg/ml
  Cell number (DAPI staining): 18 154 AU
Human preadipocytes [5]; 2 mg/ml
  Cell number (DAPI staining): 20 147 AU

Source: US20240124510A1, “Cyclic Glycoaminoacid Derivatives” (TFCHEM, priority 2021, published 2024)
